Each structure is given as a SMILES string.

The nature of this data set: Human HepG2 cell viability assay in 384 well format. The settings on record: HepG2 cells, read-out: Inhibition. The format is toxicity, cell-based. On the set-up: dose 125 nL, time 70.5 hour; concentration not given beside the values.

As to `CC(C)c1noc(CN2CCN(CCO)CC2)n1`, the cytotoxicity at 70.5 h was 2.45%.
Then `COCc1ccccc1CNCc1c(C(C)C)nn(C)c1N(C)C`, with -0.306%.
Under `CCOCCN1CCN(Cc2nc(CC(C)C)no2)CC1` stands 1.47%; under `COc1cc(CNCCn2cc(C)cn2)cc2c1OCCO2`, 1.39%.
Then `COc1ncccc1C(=O)N1CCCC(n2ccnc2)C1` (stereo unspecified), with -1.13%; and `Cc1cc(C)n(CC2CN(Cc3cnc(C)s3)CCO2)n1` (stereo unspecified), with 16.8%.
In the case of `CCc1noc(CN2CCN(CCO)CC2)n1`, the cytotoxicity at 70.5 h was -1.62%.
Then `O=C(c1cccnc1N1CCCCC1)N1CCCC(n2ccnc2)C1` (stereo unspecified), with 1.48%; and `Cc1ccc(NC2CCN(C(=O)c3c(C)nn(C)c3Cl)CC2)nn1`, with -2.32%.
Turning to `Cc1ccc(NC2CCN(C(=O)c3c(C)oc(C)c3C)CC2)nn1`, the cytotoxicity at 70.5 h was -10.8%.
Under `CC(C)c1nc2n(n1)CC(NCc1nc(-c3ccccn3)no1)CC2` (stereo unspecified) stands -7.49%; under `CC(C)c1nc2n(n1)CC(NCc1nc(-c3ccsc3)no1)CC2` (stereo unspecified), -11.5%.
Consider `Cc1cc(C(=O)N2CCCC(n3nc(C)cc3C)C2)on1` (stereo unspecified), for which the cytotoxicity at 70.5 h is -10.1%.
In the case of `Cc1cc(C)n(C2CCCN(C(=O)c3c(C)noc3C)C2)n1` (stereo unspecified), the cytotoxicity at 70.5 h is -7.4%.
For the molecule `Cc1n[nH]c(C2CN(Cc3nnc(C4CC4)n3C)CCO2)n1` (stereo unspecified), the cytotoxicity at 70.5 h is -6.69%.
Under `CCc1nc(CN2CCCN(CC(=O)Nc3cccnc3)CC2)no1` stands 8.11%.
Then `Cc1cc(CN(C)C2CCCN(Cc3noc(C)n3)C2)on1` (stereo unspecified), with 17.4%; and `COC1CCN(Cc2csc(C(C)C)n2)CC1`, with -5.9%; and `CC(C)c1nc(CN2CCN(Cc3ccccn3)CC2)cs1`, with -3.18%.
Then `Cc1csc(CNC(=O)Cc2ccc3c(c2)OCCO3)n1`, with -5.71%; and `CCOc1ccc(CC(CNC(=O)c2ccc(C)s2)C(N)=O)cc1` (stereo unspecified), with 4.65%; and `CCc1nnc2n1CCN(CC(=O)Nc1cc(C)on1)C2`, with 0.374%.
Regarding `Cc1nc2ccccc2nc1CN1CCCC(Cn2cncn2)C1` (stereo unspecified), the cytotoxicity at 70.5 h was -3.51%.
Then `Cc1ccc(C(=O)Nc2cc(F)ccc2OCC2CCCO2)cn1` (stereo unspecified), with -3.09%; and `Cc1nc2ccccc2nc1CN1CCCCC1Cn1cccn1` (stereo unspecified), with -12.7%; and `O=C(Cc1ccc2c(c1)OCCO2)N1CCCC(n2cccn2)C1` (stereo unspecified), with -19.6%.
Then `CC(C)c1nc(CC(=O)Nc2nc(CN3CCCCCC3)cs2)cs1`, with 16.6%.
Under `CCc1nc(C2CCCN2Cc2nccn2Cc2ccccc2)no1` (stereo unspecified) stands -10.3%.
In the case of `CC1CN(CC2CCCCC2)CCN1c1ccc2nncn2n1` (stereo unspecified), the cytotoxicity at 70.5 h came to 41.2%.
In the case of `Cc1cc(CN(C)C(=O)c2ccc(F)cc2Br)no1`, the cytotoxicity at 70.5 h is -9.11%.
Under `CC(C)(C)c1cn2nc(N3CCCC3Cn3cncn3)sc2n1` (stereo unspecified) stands -10.8%.
Then `Cc1[nH]ncc1C(=O)N1CCN(CC(O)C(C)(C)C)CC1` (stereo unspecified), with -14.9%.
Under `Cn1nc2c(cc1=O)CN(Cc1nnc(-c3ccco3)o1)CC2` stands -3.38%; under `Cn1nc2c(cc1=O)CN(Cc1nnc(C3CC3)o1)CC2`, 19.5%.
Take `COc1cccc(-c2nc(CNCCn3cccn3)cs2)c1`: the cytotoxicity at 70.5 h is -7.96%.
Under `CC(c1nc(C2CC2)no1)N1CCN(Cc2ccsc2)CC1` (stereo unspecified) stands -12.3%; under `COc1ccc(CN2CCN(C(C)c3nc(C4CC4)no3)CC2)cc1` (stereo unspecified), -6.65%.
Then `CC1CCCCN1C(=O)CN1CCN(c2ccc3nncn3n2)CC1` (stereo unspecified), with -11.2%; and `O=C(CCSc1ccc(F)cc1)NS(=O)(=O)c1ccc2c(c1)OCCO2`, with -6.96%; and `Cc1ccc(CNC2CCCc3c2cnn3Cc2ccccc2)s1` (stereo unspecified), with -8.41%.
Under `Cn1ncc2c1CCCC2NCc1ccc(Br)s1` (stereo unspecified) stands 3.28%.

The values are drawn from ChEMBL document CHEMBL3507680, “University of Dundee, Gates Library screen for HepG2 cell viability”.
